The text below walks through data of US6759385B1, “Methods to treat undesirable immune responses” (Regents of the University of Minnesota, priority 1997, dated 2004).

The subject of test [1] is anti-TAChR and anti-peptide IgG subclasses. Description: ELISA of anti-TAChR and anti-peptide IgG subclasses (Example III). The settings on record: IL-4 KO mice, nasal α epitope pool. In kind it is in vivo, mouse. On the procedure: Assay of Anti-TAChR and Anti-peptide IgG Subclasses. The relative concentration of IgG subclasses of anti-TAChR and anti-peptide antibodies in the sera of peptide- and sham-treated mice was measured by ELISA after immunization with TAChR. Pooled sera from three-four mice that had received identical treatments was used. The sera used in this assay was obtained at the end of the observation period (10 weeks after beginning of the anti-TAChR immunization).
Ninety-six well plates (Nunc, Karstrup, Denmark) were washed extensively and incubated as follows: 4 hours with a 10 μg/ml solution of TAChR or of individual peptides Tα150-169, Tα181-200 and Tα360-378 in 0.1 M Na phosphate buffer, pH 9.5 (two wells for each antigen), 1 hr with PBS plus 3% bovine serum albumin (BSA), 2 hours with mouse serum (serial dilutions from 1:100 to 1:40,000 in PBS plus 3% BSA), 1 hr with a dilution 1:1000 in PBS plus 3% BSA of goat antibody specific for the total IgG, or IgGl, or IgG2a, or IgG2b or IgG3 (Mouse Monoclonal Isotyping Kit, Sigma, St. Louis, Mo.), and 30 minutes with a 1:3000 dilution of peroxidase-conjugate rabbit anti-goat IgG (Sigma) in PBS plus 3% BSA. The plates were washed, and developed them for 20-60 minutes with ABTS peroxidase substrate system (Kirkegaard & Perry Laboratories Inc., Gaithersburg, Md.). […] The OD was read at 405 nanometers. […]
For orientation: In an ELISA, binding on a coated surface is turned into a signal by an enzyme label.

Test [2] relates to CD8+ depleted spleen cells. Description: Lymphocyte proliferation assay, CD8+ depleted spleen cells of IL-4 KO mice. The test is classed as cell-based, mouse. The settings on record: for recognition of individual peptide by cells from sham-treated mice: IL-4 KO mice immunized with TAChR, 10 μg/ml peptide. As for the experimental part:
Lymphocyte Proliferation Assay. Two weeks after the last immunization, spleen cells (Bellone et al., 1991) were obtained from three identically treated IL-4 KO mice. The cells were pooled and depleted them in CD8^+ cells using paramagnetic beads and rat anti-mouse CD8^+ antibody (Pharmingen, San Diego, Calif.). The cells were suspended in RPMI-1640 (Gibco, Grand Island, N.Y.) supplemented with 10% heat inactivated fetal calf serum (Gibco), 50 μM 2-mercaptoethanol, 1 mM L-glutamine, 10 mM Hepes, 1 mM sodium pyruvate, 100 U/ml penicillin and 100 μg/ml streptomycin (×10^6 cells/ml). The cells were seeded in triplicate in 96 flat-bottom well plates (200 μl/well). One of the following antigens or stimulants was added: 10 μg/ml phytohemoagglutinine (PHA) (Sigma); 10 μg/ml TAChR; the pools of overlapping peptides spanning the α, β, γ, or δ subunit sequences (5 μg/ml) of each peptide); and 10 μg/ml of the individual a subunit peptides. Controls were triplicate wells cultivated without any antigen, or with or a 20-residue control peptide synthesized by the same method, unrelated to the TAChR sequence (10 μg). After four days the cells were labeled for 16 hours with ^3H-thymidine (1 μCi per well, specific activity 6.7 Ci/mmol, Dupont, Boston, Mass.), and harvested (Titertek, Skatron, Sterling, Va.). The ^3H-thymidine incorporation was measured by liquid scintillation.

In the next test the test system is spleen CD4+ T-cells. Description: Lymphocyte proliferation assay, spleen CD4+ T-cells (Example IV). The test is classed as cell-based, mouse. The settings on record: TAChR-immunized B6 mice, 5 or 10 μg/ml. On the procedure: Lymphocyte proliferation assay. Five to seven days after the last TAChR immunization, CD4^+ T-cells (Bellone et al., 1991a) were purified from the pooled spleens of three to four mice that had received identical treatments. Irradiated (3000 rad) spleen cells from non-immunized mice were diluted as needed in RPMI-1640 (Gibco, Grand Island, N.Y.) supplemented with 10% heat inactivated fetal calf serum (Gibco), 50 μM 2-mercapto-ethanol, 1 mM L-glutamine, 10 mM HEPES, 1 mM sodium pyruvate, 100 U/ml penicillin and 100 μg/ml streptomycin (culture medium) and used as APC. The spleen CD4^+ T-cells (1×10^6/ml in culture medium, 100×1/well) were seeded in triplicate in 96 flat-bottom well plates containing 100×1 of 5×10^6/ml APC. One of the following Ag was added: 10 μg/ml PHA (Sigma); 5 or 10 μg/ml TAChR; 5 or 10 μg/ml of the individual epitope peptides. The concentrations of TAChR and epitope peptides are in the saturating range of the dose dependence curve (Bellone et al., 1991a), and yielded consistent results. Controls were triplicate wells containing CD4^+ cells and APC without any Ag, or with the control peptide (10 μg/ml). After 4 days the cells were labeled for 16 hours with ^3H-thymidine (1 μCi per well, specific activity 6.7 Ci/mmol, Dupont, Boston, Mass.) and harvested (Titertek, Skatron, Sterling, Va.). The ^3H-thymidine incorporation was measured by liquid scintillation, and represented the results as stimulation indexes (S.I.: the ratio between the cpm obtained in the presence of a given stimulus, and the average cpm obtained for non-stimulated control cultures).

The test system of another test is EMG. As to conditions: s.c. or i.p. 300 μg in IFA, 7 days before or 7-18 days after first TAChR immunization; cited from earlier work.
A further test relates to anti-FVIII CD4+ cells. Description: CD4+ epitope repertoire to FVIII in hemophilia A mice. The test is classed as cell-based, mouse. The settings on record: mice immunized s.c. with FVIII in Freund adjuvant. From the text:
CD4^+ epitope repertoire to FVIII in hemophilia A mice. Mice were immunized with 1 microgram of purified recombinant human FVIII emulsified in Freund adjuvant, and injected subcutaneously three times. The first injection utilized complete Freund adjuvant. This procedure, as opposed to i.v. injections of soluble FVIII, was selected to ensure a strong immunization to FVIII and to reveal the broadest epitope repertoire recognized by anti-FVIII CD4^+ cells.
FIG. 48 summarizes the results obtained regarding the anti-FVIII CD4^+ repertoire in the mice thus immunized. The individual peptides are indicated with codes that include two numbers, corresponding to the position of the first and last peptide residue on the sequence of the FVIII precursor. The responses to the individual peptides are organized in panels corresponding to the different domains, as indicated.

Another test relates to mice with EMG weakness. Description: Verification of myasthenic weakness with cholinesterase inhibitor in TAChR-immunized mice. In kind it is in vivo, mouse. As to conditions: i.p. As for the experimental part:
To verify the myasthenic nature of the weakness observed, mice with significant weakness were injected i.p. with the cholinesterase inhibitor edrophonium chloride (Reversol, Organon Inc., West Orange, N.J.). […] The test was performed blindly, i.e., without knowledge of the treatment that the mouse had received.
Evaluation of Clinical Symptoms of EMG. The symptoms of EMG were quantified using a forced exercise by the inverted hang technique, sensitized by a minute amount of pancuronium bromide (0.03 mg/kg intraperitoneum), given just before the test (Karachunski et al., 1995). The mice hang from a grid, and the time it took for the mouse to release its hold and fall three times is measured (“holding time”). […] This test is parametric, and gives a quantitative assessment of the severity of the mouse weakness. […]
Evaluation of the symptoms of EMG The EMG symptoms were quantified using a forced exercise test sensitized by i.p. injection of a minute amount of pancuronium bromide (0.03 mg/kg) just before the test (Karachunski et al., 1995). The mouse hangs from a grid suspended above a soft padding, and the time it takes the mouse to fall three times (‘holding time’) was measured. The test is parametric, and gives a quantitative assessment of the mouse weakness. […]

The subject of test [3] is SCID mice engrafted with BL. Description: Verification of myasthenic weakness with cholinesterase inhibitor in SCID mice engrafted with BL from MG patients. In kind it is in vivo, mouse. As for the experimental part:
Assay of myasthenic symptoms. The myasthenic symptoms were quantified using a forced exercise test sensitized by administration of a minute amount of pancuronium bromide (0.03 mg/kg intraperitoneum) just before the test. The small amount of pancuronium inactivates a fraction of the mouse muscle AChR. […] The mice hang from a grid suspended above a soft padding, and the time it took the mouse to fall three times (“holding time”) was measured. The test is parametric and gives a quantitative assessment of the mouse weakness. The mice were tested without knowledge of the type of cells engrafted.
The myasthenic nature of the weakness was verified by injecting intraperitoneum edrophonium chloride (Reversol; Organon Inc., West Orange, N.J.). […] The concentrations of human IgG and IgM in the mouse sera was measured by ELISA. Microtiter plates (Nunc, Roskilde, Denmark) were coated with goat anti-human IgG or IgM Ab (pierce, Rockford, Ill.) in 20 mM sodium carbonate buffer, pH 9.5 (coating buffer), and blocked any uncoated sites with 3% bovine serum albumin (BSA) in coating buffer. Mouse sera diluted serially in PBS was added, and incubated at 4° C. overnight. After four washings with PBS containing 1% Triton X-100, peroxidase conjugated anti-human IgG and IgM Ab (Sigma, St. Louis, Mo.) was added. […] The optical density of the plates was read at 490 nm in an ELISA reader. […]

Entries after “also recorded” stand apart in the source; their conditions may differ.

For “peptide Tα360-378: synthetic peptide corresponding to residues 360-378 of the TAChR α subunit (VIFQTPLIKNPDVKSAIEG; UniProt P02710 384-402, looked up, fragment)”, the “anti-peptide IgG2a” value in test [1] was “moderate synthesis of IgG2a”. Moreover, the “recognition of individual peptide by cells from sham-treated mice” value in test [2] is listed as “recognized strongly”. Besides, the “response of CD4+ cells from sham-tolerized mice to the peptide” value in the test with spleen CD4+ T-cells was “three of the five”.
In the case of “peptide Tα146-162: overlapping synthetic TAChR α subunit peptide that overlaps Tα150-169 (LGIWTYDGTKVSISPES; UniProt P02710 170-186, looked up, fragment)”, in test [2] (IL-4 KO mice), the “recognition of individual peptide by cells from peptide-treated mice” value is “strongly”. Further, in test [2], the “recognition of individual peptide by cells from sham-treated mice” value is “recognized strongly”. Also, the “effect on EMG” value in the test on EMG is “prevented EMG”.
“1671-1690: synthetic peptide, residues 1671-1690 of the FVIII precursor (RTTLQSDQEEIDYDDTISVE; UniProt P00451 1671-1690, looked up, fragment)”: in the test on anti-FVIII CD4+ cells, the “recognition of individual FVIII peptides by CD4+ cells” value was “recognized especially strongly”.
The same measure, in the same setting: to “1-20: synthetic peptide, residues 1-20 of the FVIII precursor (MQIELSTCFFLCLLRFCFSA; UniProt P00451 1-20, looked up, fragment)” belongs “recognized especially strongly”.
`CC[N+](C)(C)c1cccc(O)c1` [Reversol, edrophonium chloride]: the “effect on strength of mice with weakness” value in the test on mice with EMG weakness is given as “immediately improved the strength; also recorded: immediately increased the strength”. In test [3] (SCID mice), the “effect on muscle strength of mice with normal holding time” value was “did not increase the muscle strength”. Moreover, the “effect on strength of affected mice” value in test [3] (intraperitoneum, SCID mice engrafted with BL from MG patients) is given as “immediately improved the strength; also recorded: improvement of the muscle strength”.
